Consider 7 molecules from patent US11655492B2, “Activated formylglycine-generating enzymes and methods of producing and using the same” (R.P. Scherer Technologies, LLC, priority 2015, dated 2023).

Where “and” joins values, the source holds several entries; their conditions need not be identical. Identical values can stand only once. Entries after “also recorded” stand apart in the source; their conditions may differ. Like-named read-outs stand apart in the source and are kept apart here.

For data set [1] the following is noted: as measured versus glutathione disulfide; cited from earlier work.
Data set [2] deals with Sc-FGE (Streptomyces coelicolor, UniProt Q9F3C7). The data set is classed as biochemical, S. coelicolor.
Sc-FGE, sequence (Q9F3C7 whole entry): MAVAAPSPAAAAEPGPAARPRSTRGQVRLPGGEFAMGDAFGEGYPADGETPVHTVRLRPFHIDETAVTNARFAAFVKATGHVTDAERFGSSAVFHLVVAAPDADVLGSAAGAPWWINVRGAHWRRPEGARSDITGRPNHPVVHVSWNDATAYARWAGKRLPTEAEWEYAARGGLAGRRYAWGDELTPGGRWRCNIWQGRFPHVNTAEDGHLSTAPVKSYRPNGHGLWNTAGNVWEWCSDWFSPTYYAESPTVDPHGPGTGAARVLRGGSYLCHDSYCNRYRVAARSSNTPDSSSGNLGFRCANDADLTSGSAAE
Data set [3] deals with T1, Hs-cFGE (Homo sapiens, UniProt Q8NBK3).
T1 sequence (Q8NBK3 with tags, fused parts or gaps isoform Q8NBK3-4): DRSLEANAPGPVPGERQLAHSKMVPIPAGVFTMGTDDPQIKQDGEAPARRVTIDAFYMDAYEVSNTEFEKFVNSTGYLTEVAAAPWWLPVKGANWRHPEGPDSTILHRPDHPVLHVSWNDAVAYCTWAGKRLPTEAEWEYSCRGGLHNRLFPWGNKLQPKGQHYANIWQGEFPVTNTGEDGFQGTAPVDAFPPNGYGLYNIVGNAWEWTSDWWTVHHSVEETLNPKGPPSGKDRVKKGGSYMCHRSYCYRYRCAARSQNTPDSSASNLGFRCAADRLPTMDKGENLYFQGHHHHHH

For data set [4], the target named is T2, FGE (Homo sapiens, UniProt Q8NBK3).
T2 construct: made in house
T2 sequence (Q8NBK3 with tags, fused parts or gaps isoform Q8NBK3-4): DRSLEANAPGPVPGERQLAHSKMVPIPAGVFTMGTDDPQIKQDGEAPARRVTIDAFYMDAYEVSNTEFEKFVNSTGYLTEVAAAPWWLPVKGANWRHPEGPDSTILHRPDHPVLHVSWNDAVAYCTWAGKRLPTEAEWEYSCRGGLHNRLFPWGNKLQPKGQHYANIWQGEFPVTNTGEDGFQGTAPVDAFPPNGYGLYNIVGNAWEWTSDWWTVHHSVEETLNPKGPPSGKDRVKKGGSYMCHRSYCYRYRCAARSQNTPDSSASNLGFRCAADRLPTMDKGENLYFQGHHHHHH
The experiment in a line: FGE reaction mixtures with reductants or additives (product formation). The data set is classed as biochemical. The following applies: reducing agent used as stoichiometric reductant, in large excess.
Description: The specific activity of FGE was measured using a discontinuous enzymatic activity assay. […] The rate of reaction was determined by integrating the peak areas at 215 nm of the substrate cysteine (Csub) and product (fGly) peptides on reversed-phase HPLC. […] Each aqueous reaction solution (120 μL) contained Csub (100 μM), FGE (0.1-1 μM), DTT (1 mM), and buffer (25 mM TEAM, pH 9). A single time course included 5 data points collected at evenly spaced intervals. The reaction was initiated upon addition of FGE stock solution and vortexing for 3 s. The reaction vial was vortexed at 1,500 RPM and 25° C. in a thermomixer R (Eppendorf). Time points were hand quenched by adding 20 μL of reaction mixture to 2 μL of 1 M HCl using a micropipettor. After completion of the reaction, each time point was analyzed by RP-HPLC (see below).
The conversion of Cys to fGly used a 2 H^+/2 e^− oxidation of the substrate Cys thiol as well as exchange of sulfur for oxygen. […] However, because O2 is a 4 H^+/4 e^− acceptor, a reducing agent was used to provide a second equivalent of 2 H^+ and 2 e^−, completing the reduction from O2 to 2 mol H2O. […] A mixture of reductant (DTT) and O2 was used for routine activity measurements.

The subject of data set [5] is SQR.
Description: A Western blotting was performed on lysates from cells treated with Cu^2+ or not treated with Cu^2+, using antibodies against SQR to determine whether Cu^2+ increased the levels of SQR. […] Experiments were also performed to test whether overexpression of SQR in Expi cells could be a substitute for Cu^2+ in increasing conversion.
The test system of data set [6] is CT-1.1 tagged Her2. Kind of data set: 293 Expi transient co-transfection of FGE form and CT tagged antibody, conversion by mass-spectrometry. Type of data set: cell-based. As to the method: A 293 Expi transient co-transfection system (Life Technologies) was used for producing antibodies having a formylglycine residue at a selected site. The system produced high antibody titers (100-500 mg/L) with variable (10-95%) conversion. […] Expi 293F that were treated with or without 50 μM copper sulfate prior to transfection were transiently co-transfected in three independent experiments with expression plasmids for full-length human FGE with an N-terminal KDEL (SEQ ID NO:7) amino acid sequence (+KDEL) and CT tagged antibody at a ratio of 3:1 antibody:FGE DNA. The culture was harvested at 5-6 days post transfection, titer assessed by ELISA, and the protein was purified and conversion was measured by mass-spectrometry.
Expi 293F cells that were treated with or without 50 μM copper sulfate prior to transfection were transiently co-transfected with expression plasmids for various forms of human FGE (+KDEL, WT, myc-His) and CT tagged antibody at a ratio of 3:1 antibody:FGE DNA. The culture was harvested at 5 days post transfection, titer assessed by ELISA, the protein was purified and conversion was measured by mass-spectrometry.

Data set [7] concerns CHO cells.
Data set [8] has as its target human FGE (Homo sapiens, UniProt Q8NBK3). The experiment in a line: Effect of stimulators and inhibitors of oxidative phosphorylation on conversion. Type of data set: cell-based. The following applies: DCA 0-50,000 μM; rotenone 0-15,000 nM with Cu^2+.
Description: Experiments were performed to determine the effect of stimulators and inhibitors of oxidative phosphorylation on conversion efficiency for human FGE, as compared to Cu^2+.
(§1) Several experiments were run treating cells with DCA at several concentrations (DCA: 0 μM; 16 μM; 80 μM; 400 μM; 2000 μM; 10,000 μM; and 50,000 μM) and treating cells with Cu^2+ (copper sulfate) and rotenone (Rotenone: 0 nM; 5 nM; 24 nM; 120 nM; 600 nM; 3000 nM; and 15,000 nM) at several concentrations. Cells were plated and 10 μL of DCA or rotenone was added for a 4 hour treatment. Cells were equilibrated to room temperature 100 μL/well of Cell titerglo reagent (Promega) was added to each well. The plates were shaken of 2 min, incubated at room temperature for 10 min, and then read on a plate reader.
The subject of data set [9] is ATP production. The experiment in a line: ATP production dose response (Cell titerglo, 4 hour treatment). Type of data set: cell-based.
Description: as §1
The subject of data set [10] is IgG containing the aldehyde tag. The experiment in a line: In vitro conversion of intact mAb with FGE, fGly by LC-MRM/MS. Type of data set: biochemical. The procedure:
DTT (20 mM) was added to a solution of mAb (20 μg) in buffered aqueous solution (25 mM NH4HCO3) to a final volume of 20 μL. The tube containing the sample was incubated at 37° C. for 15 min at 1500 RPM. Then, HCl (50 mM) was added to the solution and the tube was vortexed until mixed. Next, ammonium bicarbonate (100 mM) was added to the solution and the tube was vortexed until mixed. Trypsin (1 μg) and iodoacetamide (50 mM) were added, and the tube was incubated at 37° C. and 1500 RPM for 60 min in the dark. Finally, sodium citrate (150 mM, pH 5.5) and methoxylamine (100 mM) were added to the solution, and the tube was incubated at 37° C. for 16 h. The processed sample was then analyzed by LC-MRM/MS. The MRM transitions included modifications of the Cys-containing peptide including: cysteine, cysteine modified with iodoacetamide, formylglycine, formylglycine hydrate (including loss of water in the collision cell), and formylglycine methyl oxime. The abundance of each species was defined by its 5 most intense precursor/product ion pairs, which were integrated to give the total signal and relative fractions of each component. In the optimized digestion and capping procedure described above, unreacted Cys, fGly, or fGly-hydrate above background was not detected, observing only carboxyacetamidomethyl Cys (CAM) and the methyl oxime of fGly (MeOx). […]

Data set [11] deals with 14 amino acid peptide ALCTPSRGSLFTGR (SEQ ID NO:8). The experiment in a line: Discontinuous FGE activity assay on peptide substrate (RP-HPLC). The data set is classed as biochemical. The procedure:
[formula] where Et is the total enzyme in solution, and kcat and KM are the standard enzymatic parameters specified by the STRENDA commission. Units of enzyme specific activity are the katal, where 1 kat=1 mol·s^−1. Kinetic parameters were determined from nonlinear regression of [substrate] v. initial velocity using GraphPad prism.
The specific activity of FGE was measuring using a discontinuous enzymatic activity assay. The substrate for FGE was a 14 amino acid peptide containing the consensus sequence (H2N-[…]-COOH (SEQ ID NO:8)). The rate of reaction was determined by integrating the peak area at 215 nm of the starting material (Cys) and product (fGly) containing peptides on reversed-phase HPLC. The identity of product (and side product) peaks were determined by RP-HPLC MS/MS. Each aqueous reaction solution (60 μL) contained substrate peptide (100 μM), FGE (1 μM), DTT (1 mM), and buffer (25 mM triethanolamine, pH 9). A single time course consisted of 5 data points collected every 2 minutes. The reaction was initiated upon addition of FGE stock solution and vortexing for 3 s. Time points were quenched by diluting 10 μL of reaction mixture into 1 μL of 1 M HCl by hand with a micropipettor. After completion of the reaction, each time point was analyzed by RP-HPLC.
Substrate, product, and side products of the FGE substrate peptide […] (SEQ ID NO:8) were separated on RP-HPLC over 7 min with isocratic 18% MeCN in water containing 0.1% TFA. The integrated area of the fGly (2.1 min), Cys (3.3 min), βME-DS (3.6 min), and Cys-DS (6.2 min) forms of the substrate were used to calculate total area and each fraction thereof.
The specific activity of FGE was measured using a discontinuous enzymatic activity assay. The substrate for FGE was a 14 amino acid peptide containing the CXPXR consensus sequence ([…] (SEQ ID NO:8)). The rate of reaction was determined by integrating the peak areas at 215 nm of the substrate cysteine (Csub) and product (fGly) peptides on reversed-phase HPLC. The identities of product (and side product) peaks were determined by RP-HPLC MS/MS (see below). Each aqueous reaction solution (120 μL) contained Csub (100 μM), FGE (0.1-1 μM), DTT (1 mM), and buffer (25 mM TEAM, pH 9). A single time course included 5 data points collected at evenly spaced intervals. The reaction was initiated upon addition of FGE stock solution and vortexing for 3 s. The reaction vial was vortexed at 1,500 RPM and 25° C. in a thermomixer R (Eppendorf). Time points were hand quenched by adding 20 μL of reaction mixture to 2 μL of 1 M HCl using a micropipettor. After completion of the reaction, each time point was analyzed by RP-HPLC (see below).
Substrate, product, and side products of the FGE substrate peptide […] (SEQ ID NO:8) were separated on RP-HPLC over 7 min with isocratic 18% MeCN in water containing 0.1% TFA. The integrated areas of the fGly (2.1 min), Csub (3.3 min), the Csub/βME disulfide (Csub-βME, 3.6 min), and substrate/substrate disulfide (Csub-Csub, 6.1 min) forms of the substrate were used to calculate total area and each fraction thereof.
Individual FGE reactions were initiated by rapidly mixing FGE into a premixed buffered solution of Csub and reducing agent. It was assumed that all buffered solutions contained oxygen at ˜270 μM at 25° C. (based upon Henry's law). Time points were chemically quenched by hand with HCl. […]. The identities of both the Cys- and fGly-containing peptides were confirmed by LC-MS/MS (FIG. 11). These assignments were then correlated with HPLC retention times (FIG. 14, panel a). The integrated peak areas of substrate and product were used to calculate the initial velocity of FGE (FIG. 14, panel b) using the method described by Boeker (Biochem. J., (1984), 223, 15; and Biochem. J., (1985), 226, 29).

The mark [12] stands for this setting: nonlinear regression to Michaelis-Menten equation.

human FGE, sequence (Q8NBK3 34-374): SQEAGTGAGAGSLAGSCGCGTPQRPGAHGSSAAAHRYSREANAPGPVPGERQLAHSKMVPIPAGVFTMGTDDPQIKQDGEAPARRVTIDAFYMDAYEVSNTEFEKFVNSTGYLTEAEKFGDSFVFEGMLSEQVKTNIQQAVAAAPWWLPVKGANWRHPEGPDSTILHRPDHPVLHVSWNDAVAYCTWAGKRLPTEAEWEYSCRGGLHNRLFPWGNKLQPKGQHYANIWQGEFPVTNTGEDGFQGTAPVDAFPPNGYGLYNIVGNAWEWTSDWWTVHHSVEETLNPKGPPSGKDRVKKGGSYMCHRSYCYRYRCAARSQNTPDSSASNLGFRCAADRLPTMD

For the molecule `O[C@H](CS)[C@H](O)CS` (racemic) [DTT, dithiothreitol], the “thiol-disulfide exchange rate constant k” value in data set [1] was 6×10^5. For the same molecule, the “effect of pretreatment of activated enzyme on specific activity” value in [2] (activated Sc-FGE, reductant and/or chelator, 15 mM each, 1 h, 37° C.) was “do not change”. In addition, the “effect of pretreatment on specific activity” value in data set [2] (excess (100 molar equiv), 1 h at 25° C., reagent removed by gel filtration) is listed as “did not change”. For the same molecule, the “effect of treatment on specific activity” value in data set [3] (20 mM reducing agent on activated Hs-cFGE) is on record as “unchanged specific activity”. In data set [4], the “rate of product formation” value was found to be 3.27 min⁻¹.

Consider `OCCS` [βME, β-mercaptoethanol], for which the “thiol-disulfide exchange rate constant k” value in data set [1] is recorded as 1. Besides, the “rate of product formation” value in data set [4] was determined as 5.07 min⁻¹.

`O=C(O)CCP(CCC(=O)O)CCC(=O)O` [TCEP, tris(carboxyethyl)phosphine]: the “effect of pretreatment of activated enzyme on specific activity” value in data set [2] was “do not change”. Besides, the “effect of treatment on specific activity” value in [3] was “unchanged specific activity”.

`O=S(=O)([O-])[O-].[Cu+2]` [Cu^2+, copper(II) sulfate]: in [5], the “levels of SQR” value is given as “No significant difference”. For the same molecule, the effect on conversion entry in [6] is reported as “enhances conversion”. Moreover, the cell viability result in data set [7] was “does not significantly change”.

As to `O=C(O)CN(CCN(CC(=O)O)CC(=O)O)CC(=O)O` [EDTA, Ethylenediaminetetraacetic acid], the “effect of pretreatment of activated enzyme on specific activity” value in data set [2] is on record as “do not change; also recorded: did not change”. The “effect of pretreatment of activated enzyme on catalytic activity” value in data set [3] (copper-treated Hs-cFGE, EDTA 5 molar equiv or KCN) is listed as “did not change”.

Take `C=C(C)[C@H]1Cc2c(ccc3c2O[C@@H]2COc4cc(OC)c(OC)cc4[C@@H]2C3=O)O1` [rotenone, Rotenone]: in [8], the effect on conversion result is listed as “no effect on conversion”. Also, the ATP production entry in data set [9] is reported as “affected ATP production as expected”.

B1: Hs-cFGE: catalytic core of H. sapiens FGE with C-terminal His6 tag (SEQ ID NO. 11), expressed in Hi5 insect cells (protein)
chain: DRSLEANAPGPVPGERQLAHSKMVPIPAGVFTMGTDDPQIKQDGEAPARRVTIDAFYMDAYEVSNTEFEKFVNSTGYLTEVAAAPWWLPVKGANWRHPEGPDSTILHRPDHPVLHVSWNDAVAYCTWAGKRLPTEAEWEYSCRGGLHNRLFPWGNKLQPKGQHYANIWQGEFPVTNTGEDGFQGTAPVDAFPPNGYGLYNIVGNAWEWTSDWWTVHHSVEETLNPKGPPSGKDRVKKGGSYMCHRSYCYRYRCAARSQNTPDSSASNLGFRCAADRLPTMDKGENLYFQGHHHHHH
As usually defined, the Km is the concentration of substrate that gives half-maximal velocity. As a reminder, the kcat is the number of substrate molecules converted per active site and unit of time at saturation. Take B1: in data set [10] (after in vitro conversion), the “fGly content in the antibody” value was 95-100%. Besides, the “conversion yield from Cys to fGly” value in data set [10] (in vitro conversion of aldehyde tagged mAb) was 90-100% and > 90%. Besides, in [11] (5 molar equiv of CuSO4, 1 h at 25° C., activated vs as purified), the “increase of specific activity on activation” value is 3. The specific activity in [11] (after activation with 5 molar equiv of CuSO4, 1 h at 25° C., excess copper removed) was 3,050±115 pkat·mg^−1; in data set [11] (as purified from cell culture, not activated) it was 1,143 pkat·mg^−1 and 1,143±84 pkat·mg^−1. The “efficiency relative to bacterial counterpart (Sc-FGE)” value in data set [11] (from kcat/KM) was “approximately 10 fold”. The Km in data set [11] (setting [12]) amounted to 0.34 µM. Besides, in data set [11] (setting [12]), the kcat was 0.101 s⁻¹.
